The text below walks through data of patent publication US7556828B2, “Pharmaceutical composition for treatment of BPH and preparation thereof” (priority 2003, dated 2009).

The subject of test [1] is tampon granuloma. The experiment in a line: Tampon granuloma of rats. It counts as in vivo. Conditions: 20 mg/kg once a day for 7 days. The protocol: Impact on Tampon Granuloma of Rats The same experimental materials and animals as in Experimental Example 2 were used. However, sixty (60) 150-180 g male rats were used. Under ether anesthesia and normal disinfection, two±1 mg sterilized tampons were embedded under the inguinal skins on either side of the bodies. […] The treatments were administered into the rats' stomachs once a day for 7 days. On the eighth day, the rats were killed via a disjointed cervical vertebra method. The tampons were removed and placed in a 60° C. oven for 12 hours and then weighed.

Test [2] relates to otic swelling caused by mixed inflammatory solution of croton oil. The experiment in a line: Otic swelling caused by mixed inflammatory solution of croton oil. As to conditions: 20 mg/kg once a day for 5 days. It counts as in vivo, mice. The method, then:
1. Impact on Otic Swelling Caused by Mixed Inflammatory Solution of Croton Oil. […] The treatments were administered to the mice once a day for 5 days. […] Four hours after inflammation, the mice were killed with a disjointed cervical vertebra method. The two ears were cut along the auricle baseline. Equal parts of the two ears (by area) were cut off and weighed on weighing scales to test twisting force. The degree of swelling/inflammation was obtained by subtracting the weight of the right ear from the weight of the left ear. The degrees of swelling between the control (contrast) groups and the test groups were analyzed statistically and the swelling inhibition rate was obtained.

Test [3] deals with prostate hyperplasia caused by testosterone propionate. Briefly: Prostate hyperplasia caused by testosterone propionate in rats, comparison of anti-prostate hyperplasia medicaments (Experimental Example 1). Type of test: in vivo, Wistar rats. Conditions: for Prostate Gland Factors, Sum of three lobes (anterior, head and posterior lobes) / Inhibition rate % (Anterior lobe) / Inhibition rate % (Sum of three lobes): 30 days; for Inhibition rate % (Anterior lobe) / Inhibition rate % (Sum of three lobes): vs contrast group; for Prostate Gland Factors, Anterior lobe: once a day for 30 days, castrated rats + testosterone propionate 5 mg/Kg. The protocol: The effect of anti-prostate hyperplasia medicaments and the composition of the present invention in rats on prostate hyperplasia caused by testosterone propionate was evaluated as discussed below.
• 1. PROSCAR (5-α-reductase inhibitor): tablets, produced by Merck & Co., Inc., (UK) Co., prepared as 0.5 mg/ml medicament. • 2. Saw Palmetto tablets, produced by Zhejiang Conba Pharmaceutical Co. Ltd., prepared with distilled water into […]. • 3. Longbishu Capsules: produced by SHIJIAZHUAN KEDI Pharmaceutical Co., Ltd., prepared with distilled water into 0.18 g/ml medical liquid. • 4. The final extract of Example 9, prepared into […] medical liquid. • 5. Estradiol Benzoate injection • 6. Testosterone propionate injection Test Method and Results
Six 130 g-150 g male Wistar rats were anaesthetized with ether. The testes of each rat were removed under axenic conditions, and the test rats were bred for a week after operation. The rats were divided at random into 6 groups, with 6 rats in each group. All groups of animals were hyped each day with 5 mg/Kg testosterone propionate dissolved in prepared peanut oil. The control (contrast) groups were administered a physiological salt solution. The test groups were administered a treatment of 5 mg/Kg PROSCAR, 5 g/Kg Saw Palmetto, 1.8 g/Kg longbishu, and 6 g/Kg of the final extract obtained in Example 9 The treatment took the form of a1 ml/100 g medicament; for hypodermic injections of 50 μg/Kg estradiol benzoate, the volume was […], administered once a day for 30 days. 24 hours after the final treatment, all the rats were killed. The whole prostate glands were anatomized and placed in formalin. Extraneous fat was cut away from the prostate glands and the liquid on the surface was dried with filter papers. The prostate glands were then weighed with a tissue balance to calculate the weight.

The subject of test [4] is testosterone propionate-induced prostate hyperplasia. The experiment in a line: Testosterone propionate-induced prostate hyperplasia in rats (Experimental Example 5). Type of test: in vivo, Wistar rats. The method, then: Impact on Testosterone Propionate-Induced Prostate Hyperplasia in Rats
The same experimental materials and animals as in Experimental Example 2 were used. However, fifty (50) 130-150 g male Wistar rats were used. Under ether anesthesia and in sterilized surroundings, both testes of each rat were removed. The rats were then bred for a week after the operation. Next, the rats were randomly divided into 5 groups of 10 rats each. Each group of animals were hyped with 5 mg/kg testosterone propionate dissolved in prepared oil once a day. During the same time period, each group was also given one of the treatments: the control (contrast) group was administered a physiological saline solution; three test groups were administered a dose (1.5, 3 and 6 g/kg) of the extract from Example 9 in a preparation of 1 m/100 g. The positive control (contrast) group was hyped with 50 μg/kg estradiol benzoate in a volume of 0.05 ml/100 g, once a day for 30 days. After the last treatment, the rats were killed and their whole prostate glands were anatomized. The prostate glands were placed in formalin. All the fat was cut away from the prostate glands after they were removed from the formalin. The remaining formalin on the prostate gland surface was dried with filter papers. The prostate glands were then placed in 70% ethanol and fixed for 24 hours. Next, the prostate glands were removed from the ethanol and placed on filter papers. The anterior, head and posterior lobes of the prostate glands were separated and weighed on a weighing scale to test twisting force. The transverse diameter, diameter and height of the anterior lobes of the prostate glands were measured with a two-foot vernier. The volume of the anterior lobe of a prostate gland was obtained by multiplying the values of the three measurements. Finally, the anterior lobes were examined with tectology, and the diameter of the prostate gland cavity and the height of the glandular epithelium cells were measured. Non-pairing t-examinations among the groups were conducted for all indexes. The values of the treatment groups were compared to the control (contrast) groups in order to determine the average difference.

[5] abbreviates: 50 μg/kg once a day for 30 days.
The mark [6] stands for this setting: estradiol benzoate 50 μg/kg, 30 days, vs control.
The mark [7] stands for this setting: dose 50 g/Kg (so in the source), hypodermic.

Marks after values point to notes of the source that are not given here.

`CC(=O)OCC(=O)[C@@]1(O)CC[C@H]2[C@@H]3CCC4=CC(=O)CC[C@]4(C)[C@H]3[C@@H](O)C[C@@]21C` [Hydrocortisone, Hydrocortisone acetate]: in test [1], the Inhibition rate % was determined as 42.43% and the “Weight of tampon granuloma (mg x ± SD)” value amounted to 26.45 ± 2.61 mg. The same compound had an Inhabitation rate % in test [2] of 46.77%. Moreover, the “Swelling degree (mg) (x ± SD)” value in test [2] (4 hours after croton oil) is on record as 9.50 ± 2.93 mg.
Turning to `CC(C)(C)NC(=O)[C@H]1CC[C@H]2[C@@H]3CC[C@H]4NC(=O)C=C[C@]4(C)[C@H]3CC[C@]12C` [PROSCAR], in test [3] (dose 5 mg/Kg), the “Prostate Gland Factors, Sum of three lobes (anterior, head and posterior lobes)” value stood at 453.4 ± 59.1 mg/100 g; the “Inhibition rate % (Anterior lobe)” value is 42.3** %; the “Inhibition rate % (Sum of three lobes)” value is given as 37.1** %; the “Prostate Gland Factors, Anterior lobe” value is 164.2 ± 31.4 mg/100 g.
For the compound `C[C@]12CC[C@@H]3c4ccc(OC(=O)c5ccccc5)cc4CC[C@H]3[C@@H]1CC[C@@H]2O` [estradiol benzoate, Estradiol Benzoate], in test [4] (setting [5]), the “Volume of anterior lobe (cm3)” value is 0.42 ± 0.12 cm3; the “rat prostate factors, Anterior lobe” value came out at 127.2 ± 23.4 mg/100 g; the “rat prostate factors, Head lobe” value turned out to be 51.2 ± 10.7 mg/100 g. In addition, the “hyperplasia of the diameter of the glandular cavity of prostate anterior and head lobes (histology)” value in test [4] (30 days after treatment, microscopic examination) is “inhibit hyperplasia”. In test [4] (setting [6]), the “inhibition rate for head lobes (weight)” value came to 30.2%; the “inhibition rate for posterior lobe (weight)” value was determined as 12.5%; the “inhibition rate for prostate anterior lobe (weight)” value was 35.3%; the “inhibition rate, volume of prostate anterior lobe” value amounted to 45.5%. Moreover, in test [3] (setting [7]), the “Prostate Gland Factors, Sum of three lobes (anterior, head and posterior lobes)” value worked out at 585.3 ± 80.5 mg/100 g; the “Inhibition rate % (Anterior lobe)” value is reported as 36.7** %; the “Inhibition rate % (Sum of three lobes)” value is given as 18.8** %; the “Prostate Gland Factors, Anterior lobe” value stood at 180.1 ± 55.8 mg/100 g.
